Results as given in article PMC8016831, “Structure–function engineering of novel fish gelatin-derived multifunctional peptides using high-resolution peptidomics and bioinformatics” (Scientific Reports, 2021).
pIC50: −log10 of the molar value. Ends that are not written are not given here.

What was measured:
[1] = in vitro; format: cell-based; conditions: human, Caco-2 cells
Method: The synthesized peptides were investigated for ACE and DPP-IV inhibitory activity, and antibacterial potential against E. coli, P. aeruginosa, S. aureus, and K. pneumoniae. Their cytotoxicity was also analyzed using the method described by Benjakul et al.[20], with some modifications. Briefly, Caco-2 and L929 cell lines were cultured in Dulbecco's Modified Eagle Medium and the RAW264.7 cell line in RPMI 1640 medium and incubated at 5% CO2 and 37 °C. All media were supplemented with 10% fetal bovine serum. Each cell line (100 µL at 2 × 10^4 cells mL^−1) was seeded onto 96-well microplates and mixed with an equal volume of each peptide at 1, 2, 4, and 6 mg mL^−1. Subsequently, the microplate was incubated for 72 h, followed by a cell viability assay using the MTT I proliferation kit (Roche Diagnostics, Basel, Switzerland). The absorbance was recorded at 570 nm.

[2] = test system: K. pneumoniae (ATCC 43816); format: cell-based, Klebsiella pneumoniae; conditions: ATCC 43816, 24 h
Method: (§1) The hydrolysates were investigated for their antibacterial activity against E. coli (ATCC 8739), P. aeruginosa (ATCC 9027), S. aureus (ATCC 6538), and K. pneumoniae (ATCC 43816) using the […]. Briefly, 50 μL of different concentrations of peptides were prepared in sterile Mueller Hinton broth. A volume of 30 μL of resazurin indicator solution (0.02%) was added to each well. An equal volume of bacterial suspension (0.5 McFarland standard) and sterile Mueller Hinton broth was then added to the well and incubated at 37 °C for 24 h. Sterile Mueller Hinton broth and 20 μg mL^−1 gentamycin were used as blank and positive controls, respectively. Afterward, the minimum inhibitory concentration (MIC) was determined as the lowest concentration of the peptides at which no visible growth was observed, compared to the positive control. All dilutions were performed in duplicate.

[3] = molecular target: angiotensin-converting enzyme (ACE) (Homo sapiens, UniProt P12821); experiment: In vitro antihypertensive assay (ACE inhibition, FAPGG, spectrophotometric); format: biochemical
Method: A spectrophotometrical method was used to determine the antihypertensive activity of peptides according to the procedure of Asoodeh, et al.[18], with some modifications. ACE (22 µL at 50 mU mL^−1) was mixed with 50 µL of the peptides at increasing concentrations (0.1, 0.2, 0.4, 0.8, 1, and 2 mg mL^−1). FAPGG (100 µL at 0.5 mM) and 150 µL of ACE buffer (50 mM Tris-HCl [pH 7.5] containing 0.3 M NaCl and 1 mM ZnCl2) were added to the mixture, followed by monitoring at 340 nm for 60 min. The antihypertensive activity was calculated as follows:2 Antihypertensiveactivity%=1-ΔAbssample/ΔAbscontrol×100
The ACE buffer was added to the mixture instead of the peptides for control. For determination of the experiment precision, captopril (15 nM) was used as positive control. The half maximal inhibitory concentration (IC50) was defined as the concentration of the peptides at which 50% of ACE activity was inhibited. All experiments were performed in triplicate.

[4] = test system: S. aureus (ATCC 6538); format: cell-based, Staphylococcus aureus; conditions: ATCC 6538, 24 h
Method: as §1

[5] = test system: E. coli (ATCC 8739); format: cell-based, Escherichia coli; conditions: ATCC 8739, 24 h
Method: as §1

[6] = test system: P. aeruginosa (ATCC 9027); format: cell-based, Pseudomonas aeruginosa; conditions: ATCC 9027, 24 h
Method: as §1

[7] = molecular target: dipeptidyl peptidase IV (DPP-IV) (Homo sapiens, UniProt P27487); experiment: In vitro antidiabetic assay (DPP-IV inhibition); format: biochemical
Method: To assess antidiabetic activity, a pre-incubated solution (50 μL) containing 30 μL Tris-HCl buffer, 5 μL of peptides (0.1, 0.2, 0.4, 0.8, 1, 2, and 4 mg mL^−1) or standard (5 μM), and 15 μL […] were poured into the wells of a 96-well microplate. Afterward, 50 μL DPP-IV (0.02 U mL^−1) was added to the mixture and incubated at 37 °C for 30 min. The reaction was stopped by adding 100 μL sodium acetate (1 M, pH 4). Absorbance at 405 nm was measured in a microplate reader. Diprotein-A (isoleucine-proline-isoleucine) was used as a standard DPP-IV inhibitor. The antidiabetic activity was calculated as follows:3 DPP - IVinhibitoryactivity(%)=1-Asample-Ablanck/Apositicecontrol-Anegativecontrol×100
Tris-HCl (100 mM) was added to the mixture instead of DPP-IV, peptide, or peptide plus DPP-IV to represent a blank, positive, and negative control, respectively.

[8] = test system: DPP-IV; design: method as in PMID 26323964; conditions: cited from earlier work
[9] = test system: ACE; conditions: cited from earlier work

Chain of angiotensin-converting enzyme (ACE) (P12821 30-1306, species assumed): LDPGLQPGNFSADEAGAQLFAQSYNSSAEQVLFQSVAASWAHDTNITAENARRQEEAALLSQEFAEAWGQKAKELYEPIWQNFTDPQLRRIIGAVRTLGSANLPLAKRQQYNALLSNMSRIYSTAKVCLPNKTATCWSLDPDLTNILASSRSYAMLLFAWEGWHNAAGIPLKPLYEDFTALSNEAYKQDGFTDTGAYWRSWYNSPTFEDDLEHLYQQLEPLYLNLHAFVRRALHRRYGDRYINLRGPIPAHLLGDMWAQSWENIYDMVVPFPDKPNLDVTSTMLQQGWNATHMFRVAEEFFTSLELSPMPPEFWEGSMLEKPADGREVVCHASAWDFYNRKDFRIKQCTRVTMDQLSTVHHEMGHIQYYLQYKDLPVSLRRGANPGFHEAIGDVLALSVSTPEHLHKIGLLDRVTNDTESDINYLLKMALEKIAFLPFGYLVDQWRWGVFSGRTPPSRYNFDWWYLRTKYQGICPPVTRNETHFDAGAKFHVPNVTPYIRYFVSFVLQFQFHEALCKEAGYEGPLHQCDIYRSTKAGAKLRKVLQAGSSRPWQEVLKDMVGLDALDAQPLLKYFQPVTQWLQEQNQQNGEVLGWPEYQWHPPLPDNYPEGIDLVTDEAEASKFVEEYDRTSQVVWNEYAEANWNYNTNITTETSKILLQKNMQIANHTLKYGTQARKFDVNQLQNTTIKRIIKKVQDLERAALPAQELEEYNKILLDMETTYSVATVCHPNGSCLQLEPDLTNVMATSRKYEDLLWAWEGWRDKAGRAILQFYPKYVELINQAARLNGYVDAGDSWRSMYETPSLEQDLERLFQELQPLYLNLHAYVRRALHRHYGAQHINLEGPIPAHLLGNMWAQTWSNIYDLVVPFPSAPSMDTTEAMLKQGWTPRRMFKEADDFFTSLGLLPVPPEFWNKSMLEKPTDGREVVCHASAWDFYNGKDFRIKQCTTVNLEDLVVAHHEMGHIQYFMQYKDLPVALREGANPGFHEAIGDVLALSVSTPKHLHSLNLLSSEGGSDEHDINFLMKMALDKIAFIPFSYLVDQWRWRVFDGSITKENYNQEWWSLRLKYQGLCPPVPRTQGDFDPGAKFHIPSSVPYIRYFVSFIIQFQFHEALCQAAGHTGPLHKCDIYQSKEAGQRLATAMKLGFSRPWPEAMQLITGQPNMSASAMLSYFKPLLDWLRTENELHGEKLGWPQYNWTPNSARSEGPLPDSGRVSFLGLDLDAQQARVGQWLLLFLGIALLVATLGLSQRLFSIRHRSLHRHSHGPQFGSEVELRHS
Chain of dipeptidyl peptidase IV (DPP-IV) (P27487 whole entry, species assumed): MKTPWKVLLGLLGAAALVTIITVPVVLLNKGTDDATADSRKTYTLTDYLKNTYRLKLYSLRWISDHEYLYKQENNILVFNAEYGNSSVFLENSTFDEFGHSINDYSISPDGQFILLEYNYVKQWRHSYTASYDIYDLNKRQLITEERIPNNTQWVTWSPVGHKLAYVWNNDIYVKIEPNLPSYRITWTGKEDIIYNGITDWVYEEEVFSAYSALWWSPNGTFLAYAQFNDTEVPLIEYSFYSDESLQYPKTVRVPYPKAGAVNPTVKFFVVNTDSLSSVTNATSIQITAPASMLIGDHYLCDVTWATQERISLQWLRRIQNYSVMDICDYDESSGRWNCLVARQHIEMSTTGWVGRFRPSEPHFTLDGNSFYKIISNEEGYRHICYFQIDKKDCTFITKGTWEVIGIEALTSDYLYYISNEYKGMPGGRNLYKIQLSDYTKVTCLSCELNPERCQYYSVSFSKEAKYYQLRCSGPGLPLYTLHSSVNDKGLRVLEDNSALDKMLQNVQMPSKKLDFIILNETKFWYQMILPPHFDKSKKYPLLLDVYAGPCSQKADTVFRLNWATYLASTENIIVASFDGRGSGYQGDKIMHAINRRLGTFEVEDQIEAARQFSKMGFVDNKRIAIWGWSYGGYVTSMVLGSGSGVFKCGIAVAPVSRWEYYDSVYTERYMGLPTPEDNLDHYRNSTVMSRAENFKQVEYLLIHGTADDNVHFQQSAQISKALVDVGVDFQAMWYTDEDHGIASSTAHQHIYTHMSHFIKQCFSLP

Substance | viability at 72 h, 6 mg mL^−1 [1] | MIC against K. pneumoniae [2] | pIC50 [3] | MIC against S. aureus [4] | MIC for E. coli [5] | MIC against P. aeruginosa [6] | pIC50 [7] | DPP-IV inhibitory activities [8] | ACE inhibition [9]
GRDGEP-NH2 [P2, GRDGEP] | 95.8% | ≥ 2000 µg/mL | 3.09 | 1160 µg/mL | 1330 µg/mL | ≥ 2000 µg/mL | 2.83 | – | –
MHQPPQPL | – | – | – | – | – | – | – | moderate | –
MTGTQGEAGR-NH2 [P3, MTGTQGEAGR] | 95.9% | 1500 µg/mL | 3.11 | 200 µg/mL | 460 µg/mL | 1660 µg/mL | 2.94 | – | –
SPTVMFPPQSVL | – | – | – | – | – | – | – | moderate | –
VLAQYK | – | – | – | – | – | – | – | – | 30.1%
